Publication PMC7452891, “Cytokinin fluoroprobe reveals multiple sites of cytokinin perception at plasma membrane and endoplasmic reticulum” (Nature Communications, 2020)

Assays:
[1] = target: T1, CRE1/AHK4 (ARABIDOPSIS HISTIDINE KINASE 4) (Arabidopsis thaliana, UniProt Q9C5U0); assay: competitive radioligand binding assay ([[…]-3H]tZ, [[…]-3H]iP) with E. coli cells expressing the receptor; type: cell-based
T1 construct: expressed in E. coli KMI001 (pIN-III-AHK4)

[2] = target: T2, AtCKX2 (CYTOKININ OXIDASE/DEHYDROGENASE) (Arabidopsis thaliana, UniProt Q9FUJ3); assay: in vitro enzymatic reaction with AtCKX2 (kcat, Vmax/Km); type: biochemical
T2 construct: gene CKX2
T2 sequence (Q9FUJ3 23-501): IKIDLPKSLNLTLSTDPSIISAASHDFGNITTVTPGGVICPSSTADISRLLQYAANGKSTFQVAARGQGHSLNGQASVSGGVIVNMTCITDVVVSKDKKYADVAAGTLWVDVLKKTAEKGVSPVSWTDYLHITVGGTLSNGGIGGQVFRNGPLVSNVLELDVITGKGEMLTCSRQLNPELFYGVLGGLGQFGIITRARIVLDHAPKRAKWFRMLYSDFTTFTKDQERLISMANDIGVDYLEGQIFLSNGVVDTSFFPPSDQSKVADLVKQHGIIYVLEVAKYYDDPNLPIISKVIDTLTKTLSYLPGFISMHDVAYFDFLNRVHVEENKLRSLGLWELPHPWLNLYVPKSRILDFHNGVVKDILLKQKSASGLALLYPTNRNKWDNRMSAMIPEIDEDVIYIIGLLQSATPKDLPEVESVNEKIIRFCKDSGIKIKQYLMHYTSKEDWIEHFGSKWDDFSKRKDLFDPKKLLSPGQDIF

[3] = target: T3, AHK3 (Arabidopsis thaliana, UniProt Q9C5U1); assay: competitive radioligand binding assay ([[…]-3H]tZ, [[…]-3H]iP) with E. coli cells expressing the receptor; type: cell-based
T3 construct: expressed in E. coli KMI001 (pSTV28-AHK3)
T3 sequence (Q9C5U1 1-1036): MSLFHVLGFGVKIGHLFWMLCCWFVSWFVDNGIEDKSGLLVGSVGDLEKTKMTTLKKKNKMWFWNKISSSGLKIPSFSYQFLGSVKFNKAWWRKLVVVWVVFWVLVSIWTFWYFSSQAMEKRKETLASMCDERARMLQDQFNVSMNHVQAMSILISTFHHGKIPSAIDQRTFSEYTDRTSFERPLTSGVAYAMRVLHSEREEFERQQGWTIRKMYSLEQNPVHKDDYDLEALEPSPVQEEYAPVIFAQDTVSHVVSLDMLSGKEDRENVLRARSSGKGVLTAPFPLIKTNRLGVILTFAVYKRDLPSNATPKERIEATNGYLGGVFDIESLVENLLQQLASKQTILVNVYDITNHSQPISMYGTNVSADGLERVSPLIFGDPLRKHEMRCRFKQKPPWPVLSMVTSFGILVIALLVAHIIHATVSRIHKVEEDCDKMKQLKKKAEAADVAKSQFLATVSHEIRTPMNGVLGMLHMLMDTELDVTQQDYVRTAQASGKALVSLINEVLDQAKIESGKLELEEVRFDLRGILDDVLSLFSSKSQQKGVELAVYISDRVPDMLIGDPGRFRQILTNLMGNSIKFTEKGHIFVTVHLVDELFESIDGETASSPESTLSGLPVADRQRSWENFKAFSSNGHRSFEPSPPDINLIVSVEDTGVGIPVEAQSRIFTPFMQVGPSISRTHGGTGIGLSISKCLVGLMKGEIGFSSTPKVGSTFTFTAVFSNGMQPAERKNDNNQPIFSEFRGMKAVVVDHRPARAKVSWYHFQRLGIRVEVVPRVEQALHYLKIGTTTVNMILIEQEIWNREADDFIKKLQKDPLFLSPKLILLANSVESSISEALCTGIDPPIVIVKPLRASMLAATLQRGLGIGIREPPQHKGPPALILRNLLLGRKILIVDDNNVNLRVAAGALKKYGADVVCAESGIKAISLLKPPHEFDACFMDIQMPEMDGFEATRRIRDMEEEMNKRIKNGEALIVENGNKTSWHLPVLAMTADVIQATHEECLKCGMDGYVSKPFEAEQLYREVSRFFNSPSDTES

[4] = target: T3, AHK3; assay: radioligand ([[…]-3H]tZ, […]) in competitive binding assay with E. coli cells
[5] = target: T1, CRE1/AHK4 (ARABIDOPSIS HISTIDINE KINASE 4); assay: as above

T1 sequence (Q9C5U0 whole entry): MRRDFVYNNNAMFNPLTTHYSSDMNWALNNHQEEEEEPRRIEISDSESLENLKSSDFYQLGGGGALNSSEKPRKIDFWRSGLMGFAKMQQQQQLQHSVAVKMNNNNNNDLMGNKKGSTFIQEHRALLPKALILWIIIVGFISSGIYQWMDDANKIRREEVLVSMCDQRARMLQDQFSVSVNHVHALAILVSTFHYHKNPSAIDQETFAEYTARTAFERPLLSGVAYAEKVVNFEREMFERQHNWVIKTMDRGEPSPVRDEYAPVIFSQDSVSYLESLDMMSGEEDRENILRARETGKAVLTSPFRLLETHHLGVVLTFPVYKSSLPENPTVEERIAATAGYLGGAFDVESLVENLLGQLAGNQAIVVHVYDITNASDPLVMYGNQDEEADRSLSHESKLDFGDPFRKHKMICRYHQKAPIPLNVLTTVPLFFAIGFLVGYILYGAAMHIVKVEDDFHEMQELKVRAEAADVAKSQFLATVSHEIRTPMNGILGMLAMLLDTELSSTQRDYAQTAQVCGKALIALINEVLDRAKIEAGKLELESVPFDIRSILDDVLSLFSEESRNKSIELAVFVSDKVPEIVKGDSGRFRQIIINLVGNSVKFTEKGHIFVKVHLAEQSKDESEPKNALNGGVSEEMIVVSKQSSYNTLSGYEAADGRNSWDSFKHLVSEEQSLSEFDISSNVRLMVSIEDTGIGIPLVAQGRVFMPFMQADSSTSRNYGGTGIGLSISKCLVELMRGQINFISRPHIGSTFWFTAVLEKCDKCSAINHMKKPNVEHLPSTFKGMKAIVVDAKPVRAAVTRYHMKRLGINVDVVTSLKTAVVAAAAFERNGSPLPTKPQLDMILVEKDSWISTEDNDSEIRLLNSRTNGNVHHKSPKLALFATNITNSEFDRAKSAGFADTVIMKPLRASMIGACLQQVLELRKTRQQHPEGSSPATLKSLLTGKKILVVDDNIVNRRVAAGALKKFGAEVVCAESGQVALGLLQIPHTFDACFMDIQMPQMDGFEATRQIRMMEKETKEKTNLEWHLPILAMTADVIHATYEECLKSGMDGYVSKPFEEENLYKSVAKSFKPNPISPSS

Row | Ki [1] | Ki [3] | SMILES | in vitro enzymatic reaction with AtCKX2 (kcat, Vmax/Km) [2] | radioligand ([2-3H]tZ, 3 nM) in competitive binding assay with E. coli cells [4] | radioligand ([2-3H]tZ, 3 nM) in competitive binding assay with E. coli cells [5]
1 | ~1.4 µM | ~37 µM | CC(C)=CCNc1ncnc2c1ncn2CCNc1ccc([N+](=O)[O-])c2nonc12 [iP-NBD] | AtCKX2 converted iP-NBD to the product with approx. six times lower turnover rate kcat compared to the parental iP |  | 
2 |  |  | C/C(=C\CNc1ncnc2[nH]cnc12)CO [tZ] |  | iP-NBD competes for receptor binding with radiolabelled natural cytokinins iP and tZ | iP-NBD competes for receptor binding with radiolabelled natural cytokinins iP and tZ
